The subject of one experiment is X. nematophila ∆paxA. It is filed as cell-based, Xenorhabdus nematophila F1. The conditions noted are these: CLSI with modifications, MHB broth, approx. 10^4 CFU mL^−1, 96-well low-binding plates, 48 h at 28°C, slow shaking. The protocol:
(§1) Bacteria were routinely grown in Lysogeny Broth (Sigma-Aldrich) medium at 28°C (Xenorhabdus, S. maltophilia, P. protegens, Ochrobactrum sp., Achromobacter sp., A. faecalis, Pseudochrobactrum sp., Brevundimonas sp., E. mundtii, and D. rugosa) or 37°C (Escherichia coli and M. luteus). When required, antibiotics were used at the following final concentrations: gentamicin (Sigma-Aldrich), 20 µg mL^−1 and chloramphenicol (Sigma-Aldrich), 20 µg mL^−1 for E. coli strains and 15 µg mL^−1 for X. nematophila (or 8 µg mL^−1 for allelic exchange).
The ΔpaxA mutant was constructed using the same experimental strategy as for the construction of the ΔngrA mutant from the WT strain X. nematophila F1 ([37]). The upstream and downstream regions of the paxA gene were amplified by PCR with the L-PCR1-paxA-SalI and R-PCR1-paxA-BamHI primers for the upstream region (621 bp) and the L-PCR2-paxA-BamHI and R-PCR2-paxA-SpeI primers for the downstream region (601 bp). The two fragments obtained were inserted, together with the 3.8 kb BamHI fragment ΩCam cassette from pHP45-ΩCm, conferring resistance to chloramphenicol, into pJQ200SK digested with SalI and SpeI for insertion of the ΩCam cassette between the two PCR fragments. The resulting plasmid, pJQ-paxA::ΩCm, was used to transform E. coli WM3064 and was introduced into X. nematophila F1 by mating. Allelic exchange was performed as previously described ([68]). ΩCam insertion was confirmed by PCR analysis using primers L-paxTA and R-verif-pax. The absence of PAX peptide products was assessed by mass spectrometry analysis, as described below. The clone obtained was called ΔpaxA.
(§2) MICs were determined in accordance with CLSI guidelines ([73]) with the following modifications: 5 mL of MHB broth (Bio-Rad) was inoculated with an overnight culture in LB broth and grown to a 0.6 < OD600 < 0.9. The inoculum for the microplate was prepared as described in the CLSI guide, with dilution in MHB to approximately 10^4 CFU mL^−1. Ninety-six-well low-binding plates were incubated for 48 h at 28°C with slow shaking. The peptides used in the analyses were supplied by the following providers: cecropin A (Sigma-Aldrich), cecropin B1 (NeoMPS S.A.) ([74]), cecropin C (Proteogenix), cecropin P1 (Sigma-Aldrich), drosocin (Eurogentec), colistin (Sigma-Aldrich), polymyxin B (Sigma-Aldrich), and NOSO 95C (odilorhabdin, Nosopharm S.A.). Synthetic PAX1′, PAX2′, and PAX7 were provided by the SynBio3 platform (IBMM, Montpellier, France), and their structure is shown in Fig. S1.

In a further experiment the test system is X. nematophila ∆ngrA. In words: MIC assay of antimicrobial peptides on X. nematophila ∆ngrA. It is filed as cell-based, Xenorhabdus nematophila F1. The conditions noted are these: CLSI with modifications, MHB broth, approx. 10^4 CFU mL^−1, 96-well low-binding plates, 48 h at 28°C, slow shaking. On the procedure:
as §1, §2

A further experiment relates to X. nematophila WT. It is filed as cell-based, Xenorhabdus nematophila F1. The protocol: as §1, §2
The subject of experiment [1] is Micrococcus luteus CIP103430. It is filed as cell-based. The conditions noted are these: CIP103430, 48 h. On the procedure: as §1, §2
The test system of experiment [2] is Stenotrophomonas maltophilia ALL5. It is filed as cell-based. To be noted: 48 h. The protocol:
as §1, §2

For another experiment, the system named is Achromobacter sp. D7.1. It is filed as cell-based. The conditions noted are these: 48 h. On the procedure:
as §1, §2

A further experiment relates to Brevundimonas sp. ALL3. The class given is cell-based. The conditions noted are these: 48 h. The protocol:
as §1, §2

For another experiment, the system named is Diutina rugosa GC. It is filed as cell-based. To be noted: 48 h. On the procedure: as §1, §2
The next experiment has as its system Ochrobactrum sp. ALL4. The class given is cell-based. To be noted: 48 h. The protocol: as §1, §2
The subject of a further experiment is Enterococcus mundtii SP. It is filed as cell-based. To be noted: 48 h. On the procedure: as §1, §2
A further experiment concerns Alcaligenes faecalis SC. The class given is cell-based. The conditions noted are these: 48 h. The protocol: as §1, §2
For experiment [3], the system named is Pseudomonas protegens PPSC10. The class given is cell-based. To be noted: 48 h. On the procedure:
as §1, §2

The test system of experiment [4] is Pseudochrobactrum sp. AL3. It is filed as cell-based. The conditions noted are these: 48 h. On the procedure:
as §1, §2

The mark [5] stands for this setting: X. nematophila WT, CLSI with modifications, MHB broth, approx. 10^4 CFU mL^−1, 96-well low-binding plates, 48 h at 28°C, slow shaking.

Converted amounts (≈) assume the structure as drawn. Where two headings read alike, the source gives them in different places. Where a SMILES comes first, the peptide text is derived from it. Bridges are numbered along the chain shown (N, C = ends). Where no end group is shown, it is not given here. [ ]: non-standard residue; d: D form. The star is where a group is joined. Hexadecanoyl(3R-OH) = CCCCCCCCCCCCC[C@@H](O)CC(=O)*; Tetradecanoyl(3R-OH) = CCCCCCCCCCC[C@@H](O)CC(=O)*; X1 = CC[C@H](C)CCCCC(=O)*; Dab = NCC[C@H](N)C(=O)O A value given as a limit tells only on which side of the number the result lay.

As to `CC[C@H](C)CCCCC(=O)N[C@@H](CCN)C(=O)N[C@H](C(=O)N[C@@H](CCN)C(=O)N[C@H]1CCNC(=O)[C@H]([C@@H](C)O)NC(=O)[C@H](CCN)NC(=O)[C@H](CCN)NC(=O)[C@H](CC(C)C)NC(=O)[C@@H](CC(C)C)NC(=O)[C@H](CCN)NC1=O)[C@@H](C)O` [Colistin, colistin] (X1-[Dab]T[Dab][Dab][Dab][dL]L[Dab][Dab]T; lactam 4-C (inferred); N-terminus assumed), the Minimum inhibitory concentration in the experiment with X. nematophila ∆paxA is 1.95 µg/mL (≈ 1.67 µM); in the experiment on X. nematophila ∆ngrA, 3.9 µg/mL (≈ 3.33 µM); in the experiment with X. nematophila WT (setting [5]) it was 3.9 µg/mL (≈ 3.33 µM).
Regarding `CC[C@H](C)CCCCC(=O)N[C@@H](CCN)C(=O)N[C@H](C(=O)N[C@@H](CCN)C(=O)N[C@H]1CCNC(=O)[C@H]([C@@H](C)O)NC(=O)[C@H](CCN)NC(=O)[C@H](CCN)NC(=O)[C@H](CC(C)C)NC(=O)[C@@H](Cc2ccccc2)NC(=O)[C@H](CCN)NC1=O)[C@@H](C)O` [Polymyxin B, polymyxin B] (X1-[Dab]T[Dab][Dab][Dab][dF]L[Dab][Dab]T; lactam 4-C (inferred); N-terminus assumed), the Minimum inhibitory concentration in the experiment on X. nematophila ∆paxA, in the experiment on X. nematophila ∆ngrA and with X. nematophila WT (setting [5]) was 0.245 µg/mL (≈ 0.204 µM) in each case.
For `CCCCCCCCCCC[C@@H](O)CC(=O)NCC(=O)N[C@@H](CCCCN)C(=O)N[C@@H]1CCCCNC(=O)[C@H](CCCCN)NC(=O)[C@@H](CCCCN)NC(=O)[C@@H](CCCCN)NC(=O)[C@H](CCCCN)NC1=O` [Synthetic PAX1′] ({Tetradecanoyl(3R-OH)}-GK[dK]K[dK][dK]K; lactam 3-C (inferred)), the Minimum inhibitory concentration in experiment [1] was 3.9 µg/mL (≈ 3.71 µM); in [2], over 250 µg/mL; in the experiment with Achromobacter sp. D7.1, over 250 µg/mL; with Brevundimonas sp. ALL3, 31.25 µg/mL (≈ 29.7 µM); in the experiment on Diutina rugosa GC, 25 µg/mL (≈ 23.8 µM); with Ochrobactrum sp. ALL4, over 250 µg/mL. The Minimum inhibitory concentration is 125 µg/mL (≈ 119 µM) with Enterococcus mundtii SP; over 250 µg/mL in the experiment on Alcaligenes faecalis SC; over 250 µg/mL in experiment [3]; over 250 µg/mL in experiment [4]; >1,500 µg mL^−1 in the experiment with X. nematophila WT (48 h).
Take `CCCCCCCCCCC[C@@H](O)CC(=O)NCC(=O)N[C@@H](CCCNC(=N)N)C(=O)N[C@@H]1CCCCNC(=O)[C@H](CCCCN)NC(=O)[C@@H](CCCCN)NC(=O)[C@@H](CCCCN)NC(=O)[C@H](CCCCN)NC1=O` [Synthetic PAX2′] ({Tetradecanoyl(3R-OH)}-GR[dK]K[dK][dK]K; lactam 3-C (inferred)): the Minimum inhibitory concentration in [1] is 1.95 µg/mL (≈ 1.8 µM); in experiment [2] it was 125 µg/mL (≈ 116 µM); in the experiment on Achromobacter sp. D7.1, 62.5 µg/mL (≈ 57.8 µM); in the experiment with Brevundimonas sp. ALL3 it was 62.5 µg/mL (≈ 57.8 µM); in the experiment with Diutina rugosa GC, 62.5 µg/mL (≈ 57.8 µM); with Ochrobactrum sp. ALL4 it was 62.5 µg/mL (≈ 57.8 µM). Moreover, the Minimum inhibitory concentration with Enterococcus mundtii SP came to 31.25 µg/mL (≈ 28.9 µM); in the experiment with Alcaligenes faecalis SC, 125 µg/mL (≈ 116 µM); in experiment [3], 125 µg/mL (≈ 116 µM); in [4], 125 µg/mL (≈ 116 µM); in the experiment on X. nematophila ∆paxA it was 375 µg/mL (≈ 347 µM); in the experiment with X. nematophila ∆ngrA it was 375 µg/mL (≈ 347 µM). In the experiment with X. nematophila WT (48 h), this molecule displayed a Minimum inhibitory concentration of 187.5 µg/mL (≈ 174 µM).
As for `CCCCCCCCCCCCC[C@@H](O)CC(=O)NCC(=O)N[C@@H](CCCCN)C(=O)N[C@@H]1CCCCNC(=O)[C@H](CCCCN)NC(=O)[C@@H](CCCCN)NC(=O)[C@@H](CCCCN)NC(=O)[C@H](CCCCN)NC1=O` [Synthetic PAX7] ({Hexadecanoyl(3R-OH)}-GK[dK]K[dK][dK]K; lactam 3-C (inferred)), the Minimum inhibitory concentration in [1] was determined as 0.49 µg/mL (≈ 0.453 µM); in experiment [2] it was 125 µg/mL (≈ 116 µM); in the experiment on Achromobacter sp. D7.1 it was 62.5 µg/mL (≈ 57.8 µM); in the experiment with Brevundimonas sp. ALL3 it was 31.25 µg/mL (≈ 28.9 µM); with Diutina rugosa GC, 62.5 µg/mL (≈ 57.8 µM); in the experiment on Ochrobactrum sp. ALL4, 62.5 µg/mL (≈ 57.8 µM). The Minimum inhibitory concentration stood at 15.63 µg/mL (≈ 14.5 µM) in the experiment on Enterococcus mundtii SP; 125 µg/mL (≈ 116 µM) in the experiment with Alcaligenes faecalis SC; 62.5 µg/mL (≈ 57.8 µM) in [3]; 62.5 µg/mL (≈ 57.8 µM) in experiment [4]; 375 µg/mL (≈ 347 µM) in the experiment on X. nematophila ∆ngrA; 187.5 µg/mL (≈ 174 µM) with X. nematophila WT (setting [5]).
Regarding “GKPRPYSPRPTSHPRPIRV [Drosocin, drosocin]”, the Minimum inhibitory concentration with X. nematophila WT (48 h) is over 50 µg/mL.
For the molecule “SWLSKTAKKLENSAKKRISEGIAIAIQGGPR [Cecropin P1, cecropin P1]”, the Minimum inhibitory concentration in the experiment on X. nematophila ∆ngrA is 12.5 µg/mL; with X. nematophila WT (setting [5]) it was over 12.5 µg/mL.
As to cecropin B1, the Minimum inhibitory concentration in the experiment on X. nematophila ∆paxA, with X. nematophila ∆ngrA and with X. nematophila WT (setting [5]) was 6.25 µg/mL throughout.
Take cecropin C: the Minimum inhibitory concentration in the experiment with X. nematophila ∆paxA turned out to be 12.5 µg/mL; with X. nematophila ∆ngrA it was 25 µg/mL; with X. nematophila WT (setting [5]) it was 12.5 µg/mL.

The record behind these values is publication PMC12542672, “Pleiotropic role of PAX cyclolipopeptides in the Xenorhabdus bacterium mutualistically associated with entomopathogenic nematodes” (Applied and Environmental Microbiology, 2025).
